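Assay format: 96-well plates, 48-hour exposure. GI50 marks 50% less growth. TGI: concentration producing complete growth inhibition.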
Legend:
Experiment in all cases: inhibition of tumour cell growth, NCI panel, 48 h
SK-MEL-5 melanoma = test system: SK-MEL-5 melanoma
CAKI-1 renal = test system: CAKI-1 renal
UO-31 renal = test system: UO-31 renal
DU-145 prostate = test system: DU-145 prostate
UACC-257 melanoma = test system: UACC-257 melanoma
T-47D breast = test system: T-47D breast
SNB-75 CNS = test system: SNB-75 CNS
SK-MEL-28 melanoma = test system: SK-MEL-28 melanoma
HOP-62 NSCLC = test system: HOP-62 NSCLC
COLO 205 colon = test system: COLO 205 colon
TK-10 renal = test system: TK-10 renal
SK-OV-3 ovarian = test system: SK-OV-3 ovarian
MDA-MB-435 = test system: MDA-MB-435
HOP-92 NSCLC = test system: HOP-92 NSCLC
MDA-MB-231 breast = test system: MDA-MB-231 breast
OVCAR-8 ovarian = test system: OVCAR-8 ovarian
CCRF-CEM leukemia = test system: CCRF-CEM leukemia
SW-620 colon = test system: SW-620 colon
786-0 renal = test system: 786-0 renal
U251 CNS = test system: U251 CNS
MALME-3M melanoma = test system: MALME-3M melanoma
IGROV1 ovarian = test system: IGROV1 ovarian
HT29 colon = test system: HT29 colon
UACC-62 melanoma = test system: UACC-62 melanoma
OVCAR-5 ovarian = test system: OVCAR-5 ovarian
HS 578T breast = test system: HS 578T breast
NCI-H522 lung = test system: NCI-H522 lung
SF-539 CNS = test system: SF-539 CNS
LOX IMVI melanoma = test system: LOX IMVI melanoma
SK-MEL-2 melanoma = test system: SK-MEL-2 melanoma
RXF 393 renal = test system: RXF 393 renal
OVCAR-4 ovarian = test system: OVCAR-4 ovarian
PC-3 prostate = test system: PC-3 prostate
SR leukemia = test system: SR leukemia
RPMI-8226 leukemia = test system: RPMI-8226 leukemia
SN12C renal = test system: SN12C renal
HCT-116 colon = test system: HCT-116 colon
NCI/ADR-RES ovarian = test system: NCI/ADR-RES ovarian
M14 melanoma = test system: M14 melanoma
A498 renal = test system: A498 renal
ACHN renal = test system: ACHN renal
A549 NSCLC = test system: A549 NSCLC
SNB-19 CNS = test system: SNB-19 CNS
NCI-H23 lung = test system: NCI-H23 lung
SF-295 CNS = test system: SF-295 CNS
MDA-N = test system: MDA-N
HCC-2998 colon = test system: HCC-2998 colon
K-562 leukemia = test system: K-562 leukemia
KM12 colon = test system: KM12 colon
NCI-H226 lung = test system: NCI-H226 lung
SF-268 CNS = test system: SF-268 CNS
MOLT-4 leukemia = test system: MOLT-4 leukemia
HCT-15 colon = test system: HCT-15 colon
OVCAR-3 ovarian = test system: OVCAR-3 ovarian
NCI-H460 lung = test system: NCI-H460 lung
HL-60(TB) leukemia = test system: HL-60(TB) leukemia
MCF7 breast = test system: MCF7 breast
EKVX NSCLC = test system: EKVX NSCLC
BT-549 breast = test system: BT-549 breast

## COC(C/C(=C/CO[Si](C(C)C)(C(C)C)C(C)C)C(=O)Nc1ccccc1I)OC
SK-MEL-5 melanoma
  TGI: > 100 µM
CAKI-1 renal
  TGI: > 100 µM
UO-31 renal
  TGI: > 100 µM
DU-145 prostate
  TGI: > 100 µM
UACC-257 melanoma
  TGI: > 100 µM
T-47D breast
  TGI: > 100 µM
SNB-75 CNS
  TGI: > 100 µM
SK-MEL-28 melanoma
  TGI: > 100 µM
HOP-62 NSCLC
  TGI: > 100 µM
COLO 205 colon
  TGI: > 100 µM
TK-10 renal
  TGI: > 100 µM
SK-OV-3 ovarian
  TGI: > 100 µM
MDA-MB-435
  TGI: > 100 µM
HOP-92 NSCLC
  TGI: 61.7 µM
MDA-MB-231 breast
  TGI: 46 µM
OVCAR-8 ovarian
  TGI: > 100 µM
CCRF-CEM leukemia
  TGI: > 100 µM
SW-620 colon
  TGI: > 100 µM
786-0 renal
  TGI: > 100 µM
U251 CNS
  TGI: > 100 µM
MALME-3M melanoma
  TGI: 31.8 µM
IGROV1 ovarian
  TGI: 28.7 µM
HT29 colon
  TGI: > 100 µM
UACC-62 melanoma
  TGI: > 100 µM
OVCAR-5 ovarian
  TGI: 70 µM
HS 578T breast
  TGI: > 100 µM
NCI-H522 lung
  TGI: 6.05 µM
SF-539 CNS
  TGI: 48.4 µM
LOX IMVI melanoma
  TGI: 45.5 µM
SK-MEL-2 melanoma
  TGI: 31.1 µM
RXF 393 renal
  TGI: 27.1 µM
OVCAR-4 ovarian
  TGI: > 100 µM
PC-3 prostate
  TGI: 62.2 µM
SR leukemia
  TGI: > 100 µM
RPMI-8226 leukemia
  TGI: 43.4 µM
SN12C renal
  TGI: > 100 µM
HCT-116 colon
  TGI: 39.8 µM
NCI/ADR-RES ovarian
  TGI: > 100 µM
M14 melanoma
  TGI: > 100 µM
A498 renal
  TGI: > 100 µM
ACHN renal
  TGI: > 100 µM
A549 NSCLC
  TGI: > 100 µM
SNB-19 CNS
  TGI: 42.5 µM
NCI-H23 lung
  TGI: > 100 µM
SF-295 CNS
  TGI: 28.2 µM
MDA-N
  TGI: > 100 µM
HCC-2998 colon
  TGI: 40 µM
K-562 leukemia
  TGI: > 100 µM
KM12 colon
  TGI: > 100 µM
NCI-H226 lung
  TGI: 98.5 µM
SF-268 CNS
  TGI: > 100 µM
MOLT-4 leukemia
  TGI: > 100 µM
HCT-15 colon
  TGI: 71.1 µM
OVCAR-3 ovarian
  TGI: 51.8 µM
NCI-H460 lung
  TGI: > 100 µM

## CCCC[P+](c1ccccc1)(c1ccccc1)c1ccccc1
SK-MEL-5 melanoma
  GI50: 0.534 µM
  TGI: 6.63 µM
CAKI-1 renal
  GI50: > 100 µM
  TGI: > 100 µM
UO-31 renal
  GI50: 24.2 µM
  TGI: > 100 µM
DU-145 prostate
  GI50: 4.41 µM
  TGI: > 100 µM
UACC-257 melanoma
  GI50: 0.61 µM
  TGI: 7.6 µM
T-47D breast
  GI50: 0.628 µM
  TGI: > 100 µM
SNB-75 CNS
  GI50: 4.95 µM
  TGI: > 100 µM
SK-MEL-28 melanoma
  GI50: 28.1 µM
  TGI: > 100 µM
HOP-62 NSCLC
  GI50: 2.55 µM
  TGI: > 100 µM
COLO 205 colon
  GI50: 1.24 µM
  TGI: 7.15 µM
TK-10 renal
  GI50: 8.29 µM
  TGI: > 100 µM
SK-OV-3 ovarian
  GI50: 13.4 µM
  TGI: > 100 µM
MDA-MB-435
  GI50: 1.63 µM
  TGI: 82.6 µM
HOP-92 NSCLC
  GI50: 0.675 µM
  TGI: 6.58 µM
MDA-MB-231 breast
  GI50: 9.13 µM
  TGI: > 100 µM
OVCAR-8 ovarian
  GI50: 2.68 µM
  TGI: > 100 µM
CCRF-CEM leukemia
  GI50: 1.72 µM
  TGI: > 100 µM
SW-620 colon
  GI50: 3.46 µM
  TGI: > 100 µM
786-0 renal
  GI50: 19.5 µM
  TGI: > 100 µM
U251 CNS
  GI50: 2.34 µM
  TGI: > 100 µM
MALME-3M melanoma
  GI50: 4.29 µM
  TGI: > 100 µM
IGROV1 ovarian
  GI50: 11.4 µM
  TGI: > 100 µM
HT29 colon
  GI50: 3.03 µM
  TGI: > 100 µM
UACC-62 melanoma
  GI50: 1.9 µM
  TGI: > 100 µM
OVCAR-5 ovarian
  GI50: 12.5 µM
  TGI: > 100 µM
HS 578T breast
  GI50: 3.38 µM
  TGI: 20.7 µM
NCI-H522 lung
  GI50: 1.22 µM
  TGI: 6.85 µM
SF-539 CNS
  GI50: 7.09 µM
  TGI: > 100 µM
HL-60(TB) leukemia
  GI50: 0.955 µM
  TGI: 6.91 µM
MCF7 breast
  GI50: 1.33 µM
  TGI: > 100 µM
LOX IMVI melanoma
  GI50: 3.01 µM
  TGI: > 100 µM
SK-MEL-2 melanoma
  GI50: 3.42 µM
  TGI: 19.6 µM
RXF 393 renal
  GI50: 18.5 µM
  TGI: > 100 µM
OVCAR-4 ovarian
  GI50: 2.43 µM
  TGI: > 100 µM
PC-3 prostate
  GI50: 1.16 µM
  TGI: 68.3 µM
SR leukemia
  GI50: 1.96 µM
  TGI: > 100 µM
RPMI-8226 leukemia
  GI50: 0.193 µM
  TGI: 0.869 µM
SN12C renal
  GI50: 4.35 µM
  TGI: > 100 µM
HCT-116 colon
  GI50: 2.87 µM
  TGI: > 100 µM
NCI/ADR-RES ovarian
  GI50: > 100 µM
  TGI: > 100 µM
M14 melanoma
  GI50: 6.79 µM
  TGI: > 100 µM
A498 renal
  GI50: 3.46 µM
  TGI: 29.5 µM
ACHN renal
  GI50: 29 µM
  TGI: > 100 µM
EKVX NSCLC
  GI50: 1 µM
  TGI: > 100 µM
A549 NSCLC
  GI50: 4.4 µM
  TGI: > 100 µM
SNB-19 CNS
  GI50: 3.6 µM
  TGI: > 100 µM
NCI-H23 lung
  GI50: 2.57 µM
  TGI: 32.6 µM
SF-295 CNS
  GI50: 5.29 µM
  TGI: 37.3 µM
HCC-2998 colon
  GI50: 1.42 µM
  TGI: > 100 µM
K-562 leukemia
  GI50: 0.577 µM
  TGI: > 100 µM
KM12 colon
  GI50: 0.944 µM
  TGI: 66.3 µM
NCI-H226 lung
  GI50: 5.34 µM
  TGI: > 100 µM
SF-268 CNS
  GI50: 5.66 µM
  TGI: > 100 µM
BT-549 breast
  GI50: 3.32 µM
  TGI: 74.7 µM
MOLT-4 leukemia
  GI50: 5.72 µM
  TGI: > 100 µM
HCT-15 colon
  GI50: > 100 µM
  TGI: > 100 µM
OVCAR-3 ovarian
  GI50: 1.13 µM
  TGI: 23.3 µM
NCI-H460 lung
  GI50: 1.96 µM
  TGI: 24.7 µM

From PubChem BioAssay (NCI)
